Test results reported in PMC6193938, “Characterization of a novel AICARFT inhibitor which potently elevates ZMP and has anti-tumor activity in murine models” (Scientific Reports, 2018).

Experiments:
Assay in all cases: CEREP protein kinase assay
Assay type in all cases: biochemical
IRAK1 = molecular target: T1, IRAK1 (Homo sapiens, UniProt P51617)
T1 construct: purchased CEREP Panlabs (Eurofins)

TNK1 = molecular target: T2, TNK1 (Homo sapiens, UniProt Q13470)
T2 construct: purchased CEREP Panlabs (Eurofins)
T2 sequence (Q13470 1-666): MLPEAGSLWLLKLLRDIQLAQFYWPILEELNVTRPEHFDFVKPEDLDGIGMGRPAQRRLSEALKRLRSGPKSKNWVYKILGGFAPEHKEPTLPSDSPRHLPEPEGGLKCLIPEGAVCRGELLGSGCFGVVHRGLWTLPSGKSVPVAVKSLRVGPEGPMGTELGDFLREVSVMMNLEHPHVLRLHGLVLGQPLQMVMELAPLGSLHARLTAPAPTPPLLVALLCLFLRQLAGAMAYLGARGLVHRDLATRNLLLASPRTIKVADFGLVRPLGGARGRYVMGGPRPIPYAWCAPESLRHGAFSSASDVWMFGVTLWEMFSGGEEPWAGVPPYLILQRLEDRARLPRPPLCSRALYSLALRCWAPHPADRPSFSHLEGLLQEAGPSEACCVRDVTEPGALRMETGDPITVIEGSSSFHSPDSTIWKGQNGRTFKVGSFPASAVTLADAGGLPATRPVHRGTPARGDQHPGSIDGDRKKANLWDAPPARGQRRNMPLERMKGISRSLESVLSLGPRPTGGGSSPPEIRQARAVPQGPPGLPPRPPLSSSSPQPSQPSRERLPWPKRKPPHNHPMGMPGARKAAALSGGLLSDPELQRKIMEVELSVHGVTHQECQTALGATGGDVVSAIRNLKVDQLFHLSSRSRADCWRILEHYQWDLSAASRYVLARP

MUSK = molecular target: T3, MUSK (Homo sapiens, UniProt O15146)
T3 construct: purchased CEREP Panlabs (Eurofins)
T3 sequence (O15146 24-869): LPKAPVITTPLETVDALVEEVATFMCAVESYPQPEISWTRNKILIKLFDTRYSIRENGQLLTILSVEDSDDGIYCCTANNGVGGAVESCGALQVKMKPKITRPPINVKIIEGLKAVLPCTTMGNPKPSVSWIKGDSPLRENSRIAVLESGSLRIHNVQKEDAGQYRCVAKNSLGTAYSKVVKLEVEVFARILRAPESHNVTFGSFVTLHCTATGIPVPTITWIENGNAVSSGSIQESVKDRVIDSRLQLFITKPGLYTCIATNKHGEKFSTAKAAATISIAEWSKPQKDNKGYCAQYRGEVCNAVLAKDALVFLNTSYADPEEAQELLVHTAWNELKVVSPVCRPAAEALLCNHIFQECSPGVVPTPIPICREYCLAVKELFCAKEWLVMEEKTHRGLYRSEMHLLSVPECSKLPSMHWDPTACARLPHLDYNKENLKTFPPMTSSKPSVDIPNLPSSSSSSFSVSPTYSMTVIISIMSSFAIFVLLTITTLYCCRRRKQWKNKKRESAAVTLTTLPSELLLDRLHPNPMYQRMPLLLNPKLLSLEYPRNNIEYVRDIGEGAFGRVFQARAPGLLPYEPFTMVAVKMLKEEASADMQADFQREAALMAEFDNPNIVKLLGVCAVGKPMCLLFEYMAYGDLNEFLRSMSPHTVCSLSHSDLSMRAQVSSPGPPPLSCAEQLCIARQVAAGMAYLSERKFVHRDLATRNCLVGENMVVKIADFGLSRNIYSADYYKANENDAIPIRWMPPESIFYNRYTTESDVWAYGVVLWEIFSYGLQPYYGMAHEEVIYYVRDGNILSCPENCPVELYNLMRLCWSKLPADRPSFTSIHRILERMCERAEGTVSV

STK33 = molecular target: T4, STK33 (Homo sapiens, UniProt Q9BYT3)
T4 construct: purchased CEREP Panlabs (Eurofins)

AXL = molecular target: T5, AXL (Homo sapiens, UniProt P30530)
T5 construct: purchased CEREP Panlabs (Eurofins)
T5 sequence (P30530 26-894): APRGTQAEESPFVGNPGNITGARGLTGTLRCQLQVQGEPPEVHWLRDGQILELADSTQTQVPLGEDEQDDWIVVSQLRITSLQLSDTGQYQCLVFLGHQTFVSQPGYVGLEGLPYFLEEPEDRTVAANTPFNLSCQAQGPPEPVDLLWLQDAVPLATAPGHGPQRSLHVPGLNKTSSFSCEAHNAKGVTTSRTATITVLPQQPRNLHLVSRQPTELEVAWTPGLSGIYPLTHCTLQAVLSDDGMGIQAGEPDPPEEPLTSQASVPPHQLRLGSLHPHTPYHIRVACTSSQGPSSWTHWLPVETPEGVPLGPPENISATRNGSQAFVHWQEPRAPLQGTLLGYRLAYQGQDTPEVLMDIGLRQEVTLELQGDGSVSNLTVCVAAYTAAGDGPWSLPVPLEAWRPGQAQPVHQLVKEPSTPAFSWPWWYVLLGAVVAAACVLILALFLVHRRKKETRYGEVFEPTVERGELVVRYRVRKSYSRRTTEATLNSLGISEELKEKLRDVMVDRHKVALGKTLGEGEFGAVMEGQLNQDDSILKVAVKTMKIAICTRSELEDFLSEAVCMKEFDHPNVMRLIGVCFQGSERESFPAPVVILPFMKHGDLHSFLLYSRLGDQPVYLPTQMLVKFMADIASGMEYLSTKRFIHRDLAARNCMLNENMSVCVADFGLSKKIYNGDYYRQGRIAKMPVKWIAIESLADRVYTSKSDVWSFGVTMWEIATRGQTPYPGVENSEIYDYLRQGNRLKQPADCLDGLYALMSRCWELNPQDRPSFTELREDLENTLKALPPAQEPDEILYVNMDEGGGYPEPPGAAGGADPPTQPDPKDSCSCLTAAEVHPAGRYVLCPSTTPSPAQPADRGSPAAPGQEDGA

TNK2 = molecular target: T6, TNK2 (Homo sapiens, UniProt Q07912)
T6 construct: purchased CEREP Panlabs (Eurofins)
T6 sequence (Q07912 whole entry): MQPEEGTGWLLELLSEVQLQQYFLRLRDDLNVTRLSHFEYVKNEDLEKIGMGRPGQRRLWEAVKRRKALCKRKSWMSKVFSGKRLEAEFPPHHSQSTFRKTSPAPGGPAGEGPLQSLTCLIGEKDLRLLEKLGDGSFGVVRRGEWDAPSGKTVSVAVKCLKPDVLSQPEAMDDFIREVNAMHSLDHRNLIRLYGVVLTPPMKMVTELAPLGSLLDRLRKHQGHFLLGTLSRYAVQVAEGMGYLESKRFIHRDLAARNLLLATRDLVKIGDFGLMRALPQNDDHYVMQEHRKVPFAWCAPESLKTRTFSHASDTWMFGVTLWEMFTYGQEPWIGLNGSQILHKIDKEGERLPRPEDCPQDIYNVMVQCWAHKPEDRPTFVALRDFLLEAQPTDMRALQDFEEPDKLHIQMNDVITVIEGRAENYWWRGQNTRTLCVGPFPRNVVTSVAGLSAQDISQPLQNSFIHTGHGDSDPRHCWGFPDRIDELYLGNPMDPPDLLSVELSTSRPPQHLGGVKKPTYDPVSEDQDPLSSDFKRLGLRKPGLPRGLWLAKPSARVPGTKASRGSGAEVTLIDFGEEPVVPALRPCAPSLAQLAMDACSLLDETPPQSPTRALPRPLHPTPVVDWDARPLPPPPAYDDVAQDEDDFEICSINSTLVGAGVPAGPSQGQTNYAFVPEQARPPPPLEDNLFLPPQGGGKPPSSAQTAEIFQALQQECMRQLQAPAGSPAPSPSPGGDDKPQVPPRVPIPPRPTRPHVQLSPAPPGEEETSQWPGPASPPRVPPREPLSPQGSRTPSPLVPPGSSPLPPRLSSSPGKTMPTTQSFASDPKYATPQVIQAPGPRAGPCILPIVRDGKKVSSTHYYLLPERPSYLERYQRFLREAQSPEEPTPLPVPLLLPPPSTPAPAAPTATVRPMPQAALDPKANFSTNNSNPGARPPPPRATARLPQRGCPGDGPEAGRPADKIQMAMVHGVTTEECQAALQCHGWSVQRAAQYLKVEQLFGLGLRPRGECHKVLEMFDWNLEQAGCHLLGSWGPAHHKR

T4 sequence (Q9BYT3 whole entry): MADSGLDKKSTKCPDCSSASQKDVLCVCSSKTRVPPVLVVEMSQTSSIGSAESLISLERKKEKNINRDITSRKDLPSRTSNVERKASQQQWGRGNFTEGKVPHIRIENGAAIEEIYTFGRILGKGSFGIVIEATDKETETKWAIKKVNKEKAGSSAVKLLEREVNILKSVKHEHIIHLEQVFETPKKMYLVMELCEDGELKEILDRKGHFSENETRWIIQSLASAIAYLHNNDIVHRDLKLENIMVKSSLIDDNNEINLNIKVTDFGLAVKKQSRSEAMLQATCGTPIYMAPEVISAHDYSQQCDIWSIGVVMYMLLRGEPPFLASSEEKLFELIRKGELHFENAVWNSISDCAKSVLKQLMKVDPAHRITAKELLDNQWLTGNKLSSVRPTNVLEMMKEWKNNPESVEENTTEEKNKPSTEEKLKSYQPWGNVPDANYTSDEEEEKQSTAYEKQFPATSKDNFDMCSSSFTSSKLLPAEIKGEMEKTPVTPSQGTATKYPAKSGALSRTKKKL
T1 sequence (P51617 whole entry): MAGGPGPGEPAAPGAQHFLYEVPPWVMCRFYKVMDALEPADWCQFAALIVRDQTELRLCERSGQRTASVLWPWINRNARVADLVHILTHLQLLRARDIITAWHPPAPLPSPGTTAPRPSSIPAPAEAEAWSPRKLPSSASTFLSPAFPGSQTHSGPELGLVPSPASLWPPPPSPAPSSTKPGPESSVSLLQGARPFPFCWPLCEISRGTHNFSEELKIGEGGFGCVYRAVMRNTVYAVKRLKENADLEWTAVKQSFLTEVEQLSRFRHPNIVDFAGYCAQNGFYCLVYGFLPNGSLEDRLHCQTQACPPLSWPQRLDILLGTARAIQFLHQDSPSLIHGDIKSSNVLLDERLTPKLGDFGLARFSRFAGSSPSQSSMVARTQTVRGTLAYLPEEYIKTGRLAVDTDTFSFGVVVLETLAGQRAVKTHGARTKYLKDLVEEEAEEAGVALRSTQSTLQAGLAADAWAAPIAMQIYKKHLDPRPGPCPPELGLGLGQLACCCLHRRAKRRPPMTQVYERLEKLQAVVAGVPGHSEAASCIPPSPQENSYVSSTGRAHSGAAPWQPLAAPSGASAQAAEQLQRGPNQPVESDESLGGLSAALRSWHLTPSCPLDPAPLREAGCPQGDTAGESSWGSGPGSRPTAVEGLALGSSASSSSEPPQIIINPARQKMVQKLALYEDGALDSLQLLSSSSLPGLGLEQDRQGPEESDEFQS

O=c1[nH]ccc2cc(F)c(NS(=O)(=O)c3ccc(N4CC[C@@H](O)C4)s3)cc12 [LSN3213128, N-(6-Fluoro-1-oxo-1,2-dihydroisoquinolin-7-yl)-5-[(3R)-3-hydroxypyrrolidin-1-yl]thiophene-2-sulfonamide]
inhibition at 0.2 µM (IRAK1; @ 0.2 uM): -0.781% | inhibition at 2 µM (IRAK1; @ 2 uM): 4.26% | inhibition at 20 µM (IRAK1; @ 20 uM): 42.2% | inhibition at 0.2 µM (TNK1; @ 0.2 uM): -11.5% | inhibition at 2 µM (TNK1; @ 2 uM): -5.26% | inhibition at 20 µM (TNK1; @ 20 uM): -3.7% | inhibition at 0.2 µM (MUSK; @ 0.2 uM): -4.24% | inhibition at 2 µM (MUSK; @ 2 uM): 5.22% | inhibition at 20 µM (MUSK; @ 20 uM): -2.74% | inhibition at 0.2 µM (STK33; @ 0.2 uM): -5.61% | inhibition at 2 µM (STK33; @ 2 uM): 15.3% | inhibition at 20 µM (STK33; @ 20 uM): -1.42% | inhibition at 0.2 µM (AXL; @ 0.2 uM): -9.2% | inhibition at 2 µM (AXL; @ 2 uM): 2.93% | inhibition at 20 µM (AXL; @ 20 uM): 22.2% | inhibition at 0.2 µM (TNK2; @ 0.2 uM): -2.49% | inhibition at 2 µM (TNK2; @ 2 uM): 16.4% | inhibition at 20 µM (TNK2; @ 20 uM): 52.5%
